Data taken from US10544130B2, “Metallo-beta-lactamase inhibitors” (priority 2015, dated 2020).

These molecules were tested on Pseudomonas aeruginosa PAO1 MB9798 (efflux+, IMP-1). Details: ratio MITC95 PA 9798/MITC95 PA 9799; imipenem at 2 μg/mL.
In short: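 Isogenic PAO1 pair (efflux+ MB9798, efflux− MB9799, both IMP-1) tested by microbroth MIC with fixed imipenem and/or ceftazidime, usually at CLSI breakpoint, plus fixed class A/C inhibitor against AmpC. MBL inhibitor titrated; concentration restoring susceptibility recorded and fold difference between strains taken as efflux extent.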

NS(=O)(=O)c1c(S(=O)(=O)N[C@H]2CCNC2)ccc(-c2cccc3[nH]cnc23)c1-c1nn[nH]n1 [Example 197, 4-(1H-benzo[d]imidazol-4-yl)-N^1—((S)-pyrrolidin-3-yl)-3-(2H-tetrazol-5-yl)benzene-1,2-disulfonamide] and Nc1ccc(-c2ccc(S(=O)(=O)N[C@H]3CCNC3)c(S(N)(=O)=O)c2-c2nn[nH]n2)cn1 [Example 195, (S)-4-(6-aminopyridin-3-yl)-N^1-(pyrrolidin-3-yl)-3-(2H-tetrazol-5-yl)benzene-1,2-disulfonamide] are the same in Efflux ratio: 1.00 for the first, 1.00 for the second.

Going from Nc1nc2c(-c3ccc(S(=O)(=O)N4CCOCC4)c(S(N)(=O)=O)c3-c3nnn[nH]3)cccc2s1 [Example 29, 3-(2-amino-1,3-benzothiazol-4-yl)-6-(morpholin-4-ylsulfonyl)-2-(1H-tetrazol-5-yl)benzenesulfonamide] to CC(CN1CCOCC1)NS(=O)(=O)c1ccc(-c2cccc3sc(N)nc23)c(-c2nnn[nH]2)c1S(N)(=O)=O (centres unmarked) [Example 51, 4-(2-amino-1,3-benzothiazol-4-yl)-N1-(1-methyl-2-morpholin-4-ylethyl)-3-(1H-tetrazol-5-yl)benzene-1,2-disulfonamide], the Efflux ratio falls from 16.00 to 4.00.

First: Nc1nc2c(-c3ccc(S(=O)(=O)NCCC(N)CF)c(S(N)(=O)=O)c3-c3nnn[nH]3)cccc2s1.O=CO (stereo not drawn) [Example 123, 4-(4-(2-aminobenzo[d]thiazol-4-yl)-2-sulfamoyl-3-(1H-tetrazol-5-yl)phenylsulfonamido)-l-fluorobutan-2-aminium formate]
Second: NCCCNS(=O)(=O)c1ccc(-c2cccc3sc(N)nc23)c(-c2nnn[nH]2)c1S(N)(=O)=O.O=C(O)C(F)(F)F [Example 90, 3-(4-(2-aminobenzo[d]thiazol-4-yl)-2-sulfamoyl-3-(1H-tetrazol-5-yl)phenylsulfonamido) propan-1-aminium 2,2,2-trifluoroacetate]
The Efflux ratio of the first is higher: 1.00 for the first, 0.50 for the second.

Nc1nc2c(-c3ccc(S(=O)(=O)NC[C@@H]4CCNC4)c(S(N)(=O)=O)c3-c3nnn[nH]3)cccc2s1 [Example 75, 4-(2-amino-1,3-benzothiazol-4-yl)-N^1-[(3R)-pyrrolidin-3-ylmethyl]-3-(1H-tetrazol-5-yl)benzene-1,2-disulfonamide] and Nc1nc2c(-c3ccc(S(=O)(=O)N[C@H]4CNC[C@@H]4F)c(S(N)(=O)=O)c3-c3nnn[nH]3)cccc2s1 [Example 59, 4-(2-amino-1,3-benzothiazol-4-yl)-N1-[(3S,4S)-4-fluoropyrrolidin-3-yl]-3-(1H-tetrazol-5-yl)benzene-1,2-disulfonamide] are the same in Efflux ratio: 1.00 for the first, 1.00 for the second.

Compared with NCCNS(=O)(=O)c1ccc(-c2cccc3nonc23)c(-c2nn[nH]n2)c1S(N)(=O)=O [Example 239, N^1-(2-aminoethyl)-4-(benzo[c][1,2,5]oxadiazol-4-yl)-3-(2H-tetrazol-5-yl)benzene-1,2-disulfonamide], Nc1nc2c(-c3ccc(S(=O)(=O)NC[C@H](N)CO)c(S(N)(=O)=O)c3-c3nn[nH]n3)cccc2[nH]1 [Example 191, 4-(2-amino-1H-benzo[d]imidazol-4-yl)-N^1—((S)-2-amino-3-hydroxypropyl)-3-(2H-tetrazol-5-yl)benzene-1,2-disulfonamide] is lower in Efflux ratio: 8.00 for the first, 1.00 for the second.

First: CN1CCC(CNS(=O)(=O)c2ccc(-c3cccc4sc(N)nc34)c(-c3nnn[nH]3)c2S(N)(=O)=O)C1.O=C(O)C(F)(F)F (centres unmarked) [Example 102, 3-((4-(2-aminobenzo[d]thiazol-4-yl)-2-sulfamoyl-3-(1H-tetrazol-5-yl)phenylsulfonamido)methyl)-1-methylpyrrolidin-1-ium 2,2,2-trifluoroacetate]
Second: CN1CCC(NS(=O)(=O)c2ccc(-c3cccc4sc(N)nc34)c(-c3nnn[nH]3)c2S(N)(=O)=O)C1 (centres unmarked) [Example 53, 4-(2-amino-1,3-benzothiazol-4-yl)-N1-(1-methylpyrrolidin-3-yl)-3-(1H-tetrazol-5-yl)benzene-1,2-disulfonamide]
The Efflux ratio of the first is lower: 0.50 for the first, 1.00 for the second.

NC[C@H](N)CNS(=O)(=O)c1ccc(-c2cccc3ccc(N)nc23)c(-c2nn[nH]n2)c1S(N)(=O)=O [Example 371, (S)-4-(2-aminoquinolin-8-yl)-N1-(2,3-diaminopropyl)-3-(2H-tetrazol-5-yl)benzene-1,2-disulfonamide] and NC[C@H](O)CNS(=O)(=O)c1ccc(-c2ccncc2N)c(-c2nn[nH]n2)c1S(N)(=O)=O [Example 222, (S)—N1-(3-amino-2-hydroxypropyl)-4-(3-aminopyridin-4-yl)-3-(2H-tetrazol-5-yl)benzene-1,2-disulfonamide] are the same in Efflux ratio: 1.00 for the first, 1.00 for the second.

Going from Nc1nc2c(-c3ccc(S(=O)(=O)NCc4ccccn4)c(S(N)(=O)=O)c3-c3nnn[nH]3)cccc2s1.O=C(O)C(F)(F)F [Example 106, 2-((4-(2-aminobenzo[d]thiazol-4-yl)-2-sulfamoyl-3-(1H-tetrazol-5-yl)phenylsulfonamido)methyl)pyridin-1-ium 2,2,2-trifluoroacetate] to Nc1nc2c(-c3ccc(S(=O)(=O)NC4C5CNCC54)c(S(N)(=O)=O)c3-c3nnn[nH]3)cccc2s1.O=C(O)C(F)(F)F (centres unmarked) [Example 111, 6-(4-(2-aminobenzo[d]thiazol-4-yl)-2-sulfamoyl-3-(1H-tetrazol-5-yl)phenylsulfonamido)-3-azabicyclo[3.1.0]hexan-3-ium 2,2,2-trifluoroacetate], the Efflux ratio falls from 4.00 to 0.50.

Compared with Nc1nc2c(-c3ccc(S(=O)(=O)NC4CCc5nccn5C4)c(S(N)(=O)=O)c3-c3nnn[nH]3)cccc2s1 (centres unmarked) [Example 35, 4-(2-amino-1,3-benzothiazol-4-yl)-N1-(5,6,7,8-tetrahydroimidazo[1,2-a]pyridin-6-yl)-3-(1H-tetrazol-5-yl)benzene-1,2-disulfonamide], COc1ccnc(CNS(=O)(=O)c2ccc(-c3cccc4sc(N)nc34)c(-c3nnn[nH]3)c2S(N)(=O)=O)n1 [Example 34, 4-(2-amino-1,3-benzothiazol-4-yl)-N1-[(4-methoxypyrimidin-2-yl)methyl]-3-(1H-tetrazol-5-yl)benzene-1,2-disulfonamide] is higher in Efflux ratio: 2.00 for the first, 4.00 for the second.

C[C@H](CN)NS(=O)(=O)c1ccc(-c2cncc(N)c2)c(-c2nn[nH]n2)c1S(N)(=O)=O [Example 221, (R)—N1-(1-aminopropan-2-yl)-4-(5-aminopyridin-3-yl)-3-(2H-tetrazol-5-yl)benzene-1,2-disulfonamide] and Cc1ccc(-c2ccc(S(N)(=O)=O)c(S(N)(=O)=O)c2-c2nn[nH]n2)c2nc(N)sc12 [Example 6, 4-(2-amino-7-methylbenzo[d]thiazol-4-yl)-3-(2H-tetrazol-5-yl)benzene-1,2-disulfonamide] are the same in Efflux ratio: 1.00 for the first, 1.00 for the second.

Going from Nc1nc2c(-c3ccc(S(=O)(=O)NC4CNC[C@H]4N)c(S(N)(=O)=O)c3-c3nn[nH]n3)cccc2[nH]1 (stereo in doubt) [Example 322, 4-(2-Amino-1H-benzo[d]imidazol-4-yl)-N1-((3S,4R)-4-aminopyrrolidin-3-yl)-3-(2H-tetrazol-5-yl)benzene-1,2-disulfonamide] to Nc1nc2c(-c3ccc(S(=O)(=O)N[C@H]4CO[C@H]5[C@H]4OC[C@H]5O)c(S(N)(=O)=O)c3-c3nnn[nH]3)cccc2s1 [Example 50, 2-({[4-(2-amino-1,3-benzothiazol-4-yl)-2-sulfamoyl-3-(1H-tetrazol-5-yl)phenyl]sulfonyl}amino)-1,4:3,6-dianhydro-2-deoxy-D-allitol], the Efflux ratio rises from 0.83 to 2.00.

Going from CNCCCN(C)S(=O)(=O)c1ccc(-c2cccc3sc(N)nc23)c(-c2nnn[nH]2)c1S(N)(=O)=O.O=C(O)C(F)(F)F [Example 93, 3-(4-(2-aminobenzo[d]thiazol-4-yl)-N-methyl-2-sulfamoyl-3-(1H-tetrazol-5-yl)phenylsulfonamido)-N-methylpropan-1-aminium 2,2,2-trifluoroacetate] to NCCOCCNS(=O)(=O)c1ccc(-c2cccc3sc(N)nc23)c(-c2nnn[nH]2)c1S(N)(=O)=O [Example 203, 4-(2-aminobenzo[d]thiazol-4-yl)-N^1-(2-(2-aminoethoxy)ethyl)-3-(1H-tetrazol-5-yl)benzene-1,2-disulfonamide], the Efflux ratio falls from 1.00 to 0.50.

Going from Nc1nc2c(-c3ccc(S(=O)(=O)NC4(CO)CCNC4)c(S(N)(=O)=O)c3-c3nnn[nH]3)cccc2s1 (centres unmarked) [Example 83, 4-(2-amino-1,3-benzothiazol-4-yl)-N1-[3-(hydroxymethyl)pyrrolidin-3-yl]-3-(1H-tetrazol-5-yl)benzene-1,2-disulfonamide] to Nc1nc2c(-c3ccc(S(=O)(=O)N4CC5CC4CS5(=O)=O)c(S(N)(=O)=O)c3-c3nnn[nH]3)cccc2s1 (centres unmarked) [Example 40, 3-(2-amino-1,3-benzothiazol-4-yl)-6-[(2,2-dioxido-2-thia-5-azabicyclo[2.2.1]hept-5-yl)sulfonyl]-2-(1H-tetrazol-5-yl)benzenesulfonamide], the Efflux ratio rises from 0.50 to 16.00.

C[C@H]1NC(=O)O[C@H]1c1ccc(-c2ccc(S(=O)(=O)N[C@@H]3CCNC3)c(S(N)(=O)=O)c2-c2nnn[nH]2)cc1 [Example 141, 4'-((4R,5S)-4-methyl-2-oxooxazolidin-5-yl)-N4-((R)-pyrrolidin-3-yl)-2-(1H-tetrazol-5-yl)-[1,1'-biphenyl]-3,4-disulfonamide] and NS(=O)(=O)c1ccc(-c2ccc(S(=O)(=O)N[C@@H]3CCNC3)c(S(N)(=O)=O)c2-c2nnn[nH]2)cc1 [Example 135, (R)-N4-(pyrrolidin-3-yl)-2-(1H-tetrazol-5-yl)-[1,1′-biphenyl]-3,4,4′-trisulfonamide] are the same in Efflux ratio: 1.00 for the first, 1.00 for the second.

Work on NCCNS(=O)(=O)c1ccc(C2CCC[C@H](N)C2)c(-c2nn[nH]n2)c1S(N)(=O)=O (stereo partly drawn) [Example 342, 4-((3S)-3-aminocyclohexyl)-N1-(2-aminoethyl)-3-(2H-tetrazol-5-yl)benzene-1,2-disulfonamide] yielded an Efflux ratio of 4.00.
